Reference: patent US20210045385A1, “PYRIDAZINONE-SUBSTITUTED KETOXIMES AS HERBICIDES” (FMC Corporation, priority 2018, published 2021)

Key:
Type in all cases: in vivo
[1] = test system: foxtail, giant (giant foxtail, Setaria faberii); assay: Test A preemergence, visual plant response rating; conditions: for Foxtail, Giant plant response rating: 125 g ai/ha, preemergence, 0 to 100 scale, 0 no effect, 100 complete control; for Foxtail, Giant plant response rating (0 to 100 scale): 500 g ai/ha Preemergence, approx. 10 days
In short: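 Formulated in a non-phytotoxic solvent mixture including surfactant, each test chemical was sprayed onto the soil surface after sowing, or onto seedlings 2 to 10 cm high. Roughly 10 days later, plants were compared with untreated controls and rated for injury from 0 (no effect) to 100 (complete control).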

[2] = test system: Italian ryegrass (Lolium multiflorum); assay: Test A preemergence, visual plant response rating; conditions: for Ryegrass, Italian plant response rating: 125 g ai/ha, preemergence, 0 to 100 scale, 0 no effect, 100 complete control; for Ryegrass, Italian plant response rating (0 to 100 scale): 500 g ai/ha Preemergence, approx. 10 days
In short: (§1)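 Compared with untreated controls, treated plants received a visual injury score on a 0–100 scale around 10 days after application. The compound, in a non-phytotoxic solvent with surfactant, was given as a preemergence soil spray or postemergence at the one- to two-leaf stage.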

kochia (Kochia scoparia) [3] = assay: Test A preemergence, visual plant response rating; conditions: for Kochia plant response rating: 125 g ai/ha, preemergence, 0 to 100 scale, 0 no effect, 100 complete control; for Kochia plant response rating (0 to 100 scale): 500 g ai/ha Preemergence, approx. 10 days
In short: as §1

[4] = test system: barnyardgrass (Echinochloa crus-galli); assay: Test A preemergence, visual plant response rating; conditions: for Barnyardgrass plant response rating: 125 g ai/ha, preemergence, 0 to 100 scale, 0 no effect, 100 complete control; for Barnyardgrass plant response rating (0 to 100 scale): 500 g ai/ha Preemergence, approx. 10 days
In short: as §1

[5] = test system: pigweed (Amaranthus retroflexus); assay: Test A preemergence, visual plant response rating; conditions: for Pigweed plant response rating: 125 g ai/ha, preemergence, 0 to 100 scale, 0 no effect, 100 complete control; for Pigweed plant response rating (0 to 100 scale): 500 g ai/ha Preemergence, approx. 10 days
In short: as §1

[6] = test system: ragweed (common ragweed, Ambrosia elatior); assay: Test A preemergence, visual plant response rating; conditions: for Ragweed plant response rating: 125 g ai/ha, preemergence, 0 to 100 scale, 0 no effect, 100 complete control; for Ragweed plant response rating (0 to 100 scale): 500 g ai/ha Preemergence, approx. 10 days
In short: as §1

[7] = test system: foxtail, giant (giant foxtail, Setaria faberii); assay: Test A postemergence, visual plant response rating; conditions: for Foxtail, Giant plant response rating (0 to 100 scale): 500 g ai/ha, postemergence, 0 is no effect, 100 is complete control; for Foxtail, Giant plant response rating: Postemergence, 125 g ai/ha, 0 to 100 scale (0 no effect, 100 complete control)
In short: as §1

[8] = test system: blackgrass (Alopecurus myosuroides); assay: Test A postemergence, visual plant response rating; conditions: for Blackgrass plant response rating (0 to 100 scale): 500 g ai/ha, postemergence, 0 is no effect, 100 is complete control; for Blackgrass plant response rating: Postemergence, 125 g ai/ha, 0 to 100 scale (0 no effect, 100 complete control)
In short: as §1

[9] = test system: Italian ryegrass (Lolium multiflorum); assay: Test A postemergence, visual plant response rating; conditions: for Ryegrass, Italian plant response rating (0 to 100 scale): 500 g ai/ha, postemergence, 0 is no effect, 100 is complete control; for Ryegrass, Italian plant response rating: Postemergence, 125 g ai/ha, 0 to 100 scale (0 no effect, 100 complete control)
In short: as §1

kochia (Kochia scoparia) [10] = assay: Test A postemergence, visual plant response rating; conditions: for Kochia plant response rating (0 to 100 scale): 500 g ai/ha, postemergence, 0 is no effect, 100 is complete control; for Kochia plant response rating: Postemergence, 125 g ai/ha, 0 to 100 scale (0 no effect, 100 complete control)
In short: as §1

[11] = test system: wheat (Triticum aestivum); assay: Test A postemergence, visual plant response rating; conditions: for Wheat plant response rating (0 to 100 scale): 500 g ai/ha, postemergence, 0 is no effect, 100 is complete control; for Wheat plant response rating: Postemergence, 125 g ai/ha, 0 to 100 scale (0 no effect, 100 complete control)
In short: as §1

[12] = test system: barnyardgrass (Echinochloa crus-galli); assay: Test A postemergence, visual plant response rating; conditions: for Barnyardgrass plant response rating (0 to 100 scale): 500 g ai/ha, postemergence, 0 is no effect, 100 is complete control; for Barnyardgrass plant response rating: Postemergence, 125 g ai/ha, 0 to 100 scale (0 no effect, 100 complete control)
In short: as §1

[13] = test system: galium (catchweed bedstraw, Galium aparine); assay: Test A postemergence, visual plant response rating; conditions: for Galium plant response rating (0 to 100 scale): 500 g ai/ha, postemergence, 0 is no effect, 100 is complete control; for Galium plant response rating: Postemergence, 125 g ai/ha, 0 to 100 scale (0 no effect, 100 complete control)
In short: as §1

corn (Zea mays) = assay: Test A postemergence, visual plant response rating; conditions: for Corn plant response rating (0 to 100 scale): 500 g ai/ha, postemergence, 0 is no effect, 100 is complete control; for Corn plant response rating: Postemergence, 125 g ai/ha, 0 to 100 scale (0 no effect, 100 complete control)
In short: as §1

[14] = test system: pigweed (Amaranthus retroflexus); assay: Test A postemergence, visual plant response rating; conditions: for Pigweed plant response rating (0 to 100 scale): 500 g ai/ha, postemergence, 0 is no effect, 100 is complete control; for Pigweed plant response rating: Postemergence, 125 g ai/ha, 0 to 100 scale (0 no effect, 100 complete control)
In short: as §1

[15] = test system: ragweed (common ragweed, Ambrosia elatior); assay: Test A postemergence, visual plant response rating; conditions: for Ragweed plant response rating (0 to 100 scale): 500 g ai/ha, postemergence, 0 is no effect, 100 is complete control; for Ragweed plant response rating: Postemergence, 125 g ai/ha, 0 to 100 scale (0 no effect, 100 complete control)
In short: as §1

[16] = test system: sedge, umbrella (small-flower umbrella sedge, Cyperus difformis); assay: Test B flooded paddy test, visual plant response rating; conditions: 250 g ai/ha, Flood, applied to paddy water, 2-leaf stage, evaluated after 13 to 15 days
In short: (§2)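 Compounds added straight into paddy water of pots flooded to 3 cm, with 2-leaf-stage plants of the four species; water level held throughout.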

rice (Oryza sativa) = assay: as above; conditions: 250 g ai/ha, Flood, applied to paddy water, 2-leaf stage, evaluated after 13 to 15 days
In short: as §2

[17] = test system: barnyardgrass (Echinochloa crus-galli); assay: as above; conditions: 250 g ai/ha, Flood, applied to paddy water, 2-leaf stage, evaluated after 13 to 15 days
In short: as §2

[18] = test system: ducksalad (Heteranhera limosa); assay: as above; conditions: 250 g ai/ha, Flood, applied to paddy water, 2-leaf stage, evaluated after 13 to 15 days
In short: as §2

Row | Structure (SMILES) | Foxtail, Giant plant response rating [1] | Foxtail, Giant plant response rating (0 to 100 scale) [1] | Ryegrass, Italian plant response rating [2] | Ryegrass, Italian plant response rating (0 to 100 scale) [2] | Kochia plant response rating (kochia (Kochia scoparia) [3]) | Kochia plant response rating (0 to 100 scale) (kochia (Kochia scoparia) [3]) | Barnyardgrass plant response rating [4] | Barnyardgrass plant response rating (0 to 100 scale) [4] | Pigweed plant response rating [5] | Pigweed plant response rating (0 to 100 scale) [5] | Ragweed plant response rating [6] | Ragweed plant response rating (0 to 100 scale) [6] | Foxtail, Giant plant response rating (0 to 100 scale) [7] | Foxtail, Giant plant response rating [7] | Blackgrass plant response rating (0 to 100 scale) [8] | Blackgrass plant response rating [8] | Ryegrass, Italian plant response rating (0 to 100 scale) [9] | Ryegrass, Italian plant response rating [9] | Kochia plant response rating (0 to 100 scale) (kochia (Kochia scoparia) [10]) | Kochia plant response rating (kochia (Kochia scoparia) [10]) | other results
1 | Cc1nn(C)c(=O)c(C(=NOCC=CCl)c2ccc(F)c3ccccc23)c1O [Compound 106] | 100 | 100 | 60 | 90 | 0 | 20 | 50 | 90 | 50 | 80 | 40 | 80 | 70 | 60 | 90 | 80 | 100 | 70 | 50 | 20 | Wheat plant response rating (0 to 100 scale) [11]: 50; Wheat plant response rating [11]: 0; Barnyardgrass plant response rating (0 to 100 scale) [12]: 90; Barnyardgrass plant response rating [12]: 80; Galium plant response rating (0 to 100 scale) [13]: 90; Galium plant response rating [13]: 80; Corn plant response rating (0 to 100 scale) (corn (Zea mays)): 30; Corn plant response rating (corn (Zea mays)): 20; Pigweed plant response rating (0 to 100 scale) [14]: 80; Pigweed plant response rating [14]: 70; Ragweed plant response rating (0 to 100 scale) [15]: 90; Ragweed plant response rating [15]: 70; Plant response rating, Sedge, Umbrella (0 to 100 scale, 0 is no effect, 100 is complete control) [16]: 0; Plant response rating, Rice (0 to 100 scale, 0 is no effect, 100 is complete control) (rice (Oryza sativa)): 0; Plant response rating, Barnyardgrass (0 to 100 scale, 0 is no effect, 100 is complete control) [17]: 0; Plant response rating, Ducksalad (0 to 100 scale, 0 is no effect, 100 is complete control) [18]: 0
2 | CON=C(c1c(O)c(C)nn(C)c1=O)c1cccc2cc(Br)ccc12 [Compound 96] | 70 | 100 | 30 | 100 | 20 | 100 | 60 | 80 | 80 | 100 | 90 | 100 | 70 | 20 | 100 | 90 | 80 | 80 | 80 | 60 | Wheat plant response rating (0 to 100 scale) [11]: 50; Wheat plant response rating [11]: 0; Barnyardgrass plant response rating (0 to 100 scale) [12]: 30; Barnyardgrass plant response rating [12]: 20; Galium plant response rating (0 to 100 scale) [13]: 90; Galium plant response rating [13]: 90; Corn plant response rating (0 to 100 scale) (corn (Zea mays)): 30; Corn plant response rating (corn (Zea mays)): 10; Pigweed plant response rating (0 to 100 scale) [14]: 90; Pigweed plant response rating [14]: 80; Ragweed plant response rating (0 to 100 scale) [15]: 100; Ragweed plant response rating [15]: 90; Plant response rating, Sedge, Umbrella (0 to 100 scale, 0 is no effect, 100 is complete control) [16]: 0; Plant response rating, Rice (0 to 100 scale, 0 is no effect, 100 is complete control) (rice (Oryza sativa)): 0; Plant response rating, Barnyardgrass (0 to 100 scale, 0 is no effect, 100 is complete control) [17]: 0; Plant response rating, Ducksalad (0 to 100 scale, 0 is no effect, 100 is complete control) [18]: 0
3 | CO/N=C(\c1csc(C)c1)c1c(O)c(C)nn(C)c1=O [Compound 44] | 0 | 10 | 0 | 50 | 0 | 0 | 0 | 10 | 0 | 0 | 0 | 0 | 50 | 0 | 30 | 0 | 0 | 20 | 0 | 0 | Wheat plant response rating (0 to 100 scale) [11]: 0; Wheat plant response rating [11]: 0; Barnyardgrass plant response rating (0 to 100 scale) [12]: 30; Barnyardgrass plant response rating [12]: 0; Galium plant response rating (0 to 100 scale) [13]: 50; Galium plant response rating [13]: 20; Corn plant response rating (0 to 100 scale) (corn (Zea mays)): 20; Corn plant response rating (corn (Zea mays)): 0; Pigweed plant response rating (0 to 100 scale) [14]: 10; Pigweed plant response rating [14]: 10; Ragweed plant response rating (0 to 100 scale) [15]: 40; Ragweed plant response rating [15]: 0; Plant response rating, Sedge, Umbrella (0 to 100 scale, 0 is no effect, 100 is complete control) [16]: 0; Plant response rating, Rice (0 to 100 scale, 0 is no effect, 100 is complete control) (rice (Oryza sativa)): 0; Plant response rating, Barnyardgrass (0 to 100 scale, 0 is no effect, 100 is complete control) [17]: 0; Plant response rating, Ducksalad (0 to 100 scale, 0 is no effect, 100 is complete control) [18]: 0
